Literature values in US12233067B2, “Topical treatment of vitiligo by a JAK inhibitor” (Incyte Corporation, priority 2019, dated 2025).

What was measured:
[1] = system: patient with both alopecia areata and vitiligo; settings: oral 20 mg BID for 20 weeks
[2] = system: patient with widespread and progressive vitiligo; settings: oral 5 mg QD; after 5 months of treatment

Row | SMILES | clinical outcome [1] | clinical outcome [2]
1 | N#CC[C@H](C1CCCC1)n1cc(-c2ncnc3[nH]ccc23)cn1 [ruxolitinib, (R)-3-(4-(7H-pyrrolo[2,3-d]pyrimidin-4-yl)-1H-pyrazol-1-yl)-3-cyclopentylpropanenitrile] | hair regrowth as well as repigmentation of areas affected with vitiligo | –
2 | C[C@@H]1CCN(C(=O)CC#N)C[C@@H]1N(C)c1ncnc2[nH]ccc12 [tofacitinib] | – | near complete repigmentation
